The source of these data is patent publication US9408848B2, “Fluorescent CDK inhibitors for treatment of cancer” (Georgetown University, priority 2008, dated 2016).

Each structure is given as a SMILES string.

One assay concerns MDA-MB-231 cells. Briefly: Apoptotic signaling, Western blot of apoptosis related proteins. The assay is classed as cell-based, human. The note with it: MDA-MB-231, 10 μM, 48 hours. The method, then: In order to understand whether VMY-1-101 and VMY-1-103 compounds were able to induce apoptotic cell death, the expression of anti- and pro-apoptotic proteins in MDA-MB-231 cells following treatment with 10 μM drugs for 48 hours was evaluated first. […] This is further confirmed with proapoptotic 116 kDa poly (ADP-ribose) polymerase protein (PARP) into its 89-kDa fragments. […].
Western blotting was performed according to literature procedure. In brief, cell pellets were collected at the indicated times after treatment with compounds, suspended in 100 μL of lysis buffer (50 mM Tris-HCl, 150 mM NaCl, 1 mM EGTA, 1 mM EDTA, 20 mM NaF, 100 mM Na3VO4, 0.5% NP-40, 1% Triton X-100, 1 mM PMSF, 5 μg/ml aprotinin, 5 μg/ml leupeptin), vortexed twice and incubated in an ice bath for 30 min. Lysates were cleared by centrifugation at 12000 rpm for 15 min at 4° C. and protein was estimated by detergent compatible BCA protein assay kit (Pierce). Equivalent amounts of total proteins were resolved by SDS-PAGE (10%) and transferred to PVDF membrane. Membranes were blocked by 5% non-fat powdered milk in TBST overnight. Membranes were incubated with indicated primary antibodies for 2 hours followed by HRP-conjugated secondary antibodies for 1 hr and developed using enhanced chemiluminescence kit (Perkin Elmer).
(In western blotting, separated proteins are transferred to a membrane and probed.)

Assay [1] concerns MCF-7. Briefly: Cell cycle analysis by flow cytometry (propidium iodide). The assay is classed as cell-based, human. As to the method:
(§1) 5 μM concentrations were used for all drugs tested. The cells were exposed to the vehicle (DMSO) or […] of the CDK inhibitors for 24 hrs. The cell cycle distribution was then assessed using standard procedures.
On the technique in general: In flow cytometry, cells or beads pass a laser one at a time.

Assay [2] has as its system MDA-MB-231. The assay is described as above. The format is cell-based, human. As to the method: as §1
The target in the next assay is T1, CDK7/cyclinH/MATI (Homo sapiens, UniProt P50613).
T1 construct: purchased Millipore, Dundee, UK (screening service)
T1 sequence (P50613 whole entry): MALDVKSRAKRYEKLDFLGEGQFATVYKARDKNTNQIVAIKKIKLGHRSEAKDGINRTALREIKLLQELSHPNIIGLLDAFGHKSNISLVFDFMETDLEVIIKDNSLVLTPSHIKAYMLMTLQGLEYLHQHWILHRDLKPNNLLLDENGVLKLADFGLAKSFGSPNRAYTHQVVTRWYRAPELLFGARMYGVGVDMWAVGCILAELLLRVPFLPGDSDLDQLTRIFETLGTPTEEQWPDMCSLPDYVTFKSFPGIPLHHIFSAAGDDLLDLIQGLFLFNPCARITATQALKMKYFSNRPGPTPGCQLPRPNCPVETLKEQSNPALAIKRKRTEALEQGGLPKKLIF
T1 sequence (P51946 whole entry partner): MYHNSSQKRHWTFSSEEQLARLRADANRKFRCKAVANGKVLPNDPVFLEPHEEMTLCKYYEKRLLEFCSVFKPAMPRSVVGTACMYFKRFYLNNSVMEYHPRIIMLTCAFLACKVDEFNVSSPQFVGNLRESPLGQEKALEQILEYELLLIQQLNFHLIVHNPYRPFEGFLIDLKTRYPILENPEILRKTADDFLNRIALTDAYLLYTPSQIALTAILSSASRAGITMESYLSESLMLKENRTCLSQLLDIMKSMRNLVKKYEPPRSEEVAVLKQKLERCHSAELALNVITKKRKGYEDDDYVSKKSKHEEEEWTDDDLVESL
T1 sequence (P51948 whole entry partner): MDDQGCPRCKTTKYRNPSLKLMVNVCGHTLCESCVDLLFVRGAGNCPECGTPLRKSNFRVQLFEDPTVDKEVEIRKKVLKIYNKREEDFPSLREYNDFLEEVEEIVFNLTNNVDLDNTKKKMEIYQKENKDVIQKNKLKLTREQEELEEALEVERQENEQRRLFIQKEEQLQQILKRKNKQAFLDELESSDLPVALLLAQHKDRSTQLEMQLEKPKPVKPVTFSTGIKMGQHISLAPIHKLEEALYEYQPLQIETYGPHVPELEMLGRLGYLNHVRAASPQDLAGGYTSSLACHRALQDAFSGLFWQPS
The assay is described as follows: Kinase assay ([γ-33P]-ATP, histone H1). The assay is classed as biochemical. Particulars: read-out: % inhibition of kinase activity, CDK7/cyclinH/MATI. As to the method:
. The final reaction was carried out in a 25 μL solution. The respective kinases (at […] were incubated with 8 mM MOPS (pH 7.0), 0.2 mM EDTA, 0.1 mg/ml histone H1, 10 mM MgAcetate and [γ-33P-ATP] (specific activity approximately 500 cpm/pmol, concentration as required). The reaction was then initiated by the addition of the MgATP mix. The reaction was stopped after 40 min of incubation by adding 5 μL of a 3% phosphoric acid solution. 10 μL of the reaction was spotted onto a P30 filter mat and washed 3 times for 5 min in 75 mM phosphoric acid and one in methanol prior to drying and counted radioactivity by scintillation counting. […]. Table 1 summarizes the cytotoxic effects of VMY compounds and its controls on breast cancer cell line.
(§2) Kinase selectivity of compounds VMY-1-101 and VMY-1-103 were screened at Millipore, Dundee, UK. Briefly assays were performed with a Biomek 2000 Laboratory Automation Workstation in a 96-well format (Beckman instruments, Palo Alto, Calif., U.S.A) for 40 min at ambient temperature in 25 μL incubations using [γ-^33P]-ATP. In a final reaction volume of 25 μL corresponding CDK/cyclin (h) (5-10 mU) was incubated with 8 mM MOPS pH 7.0, 0.2 mM EDTA, 0.1 mg/mL histone H1, 10 mM MgAcetate and [γ-^33P-ATP](specific activity approx. 500 cpm/pmol, concentration as required). The reaction was initiated by the addition of the MgATP mix. After incubation for 40 min at room temperature, the reaction was stopped by the addition of 5 μL of a 3% phosphoric acid solution. From the reaction, 10 μL was spotted onto a P30 filtermat and washed three times for 5 minutes in 75 mM phosphoric acid and once in methanol prior to dying and scintillation counting.

The test system of assay [3] is MCF-7. The assay is described as follows: Cell viability assay (WST-1). The format is cell-based, human. The note with it: Homo sapiens, MCF7, 48 h, read-out: IC50 (concentration yielding 50% growth inhibition). As to the method: (§3) (10%), 2 mM L-glutamine, and 50 μg/mL each of antibiotics, namely penicillin, streptomycin, and neomycin at 37° C. in a humidified incubator containing 5% CO2
(§4) Briefly human breast cancer cells were seeded into a 96-well plate at 3000 cells per well in DMEM containing 10% FBS. Following 24 hours attachment period, compounds were dissolved in DMSO and serially diluted in tissue culture media and added to the cells in triplicate, and incubated for 48 h at 37° C. Control cells were treated with equal amount of DMSO. After 48 h incubation, cell viability was measured by WST-1 assay according to the manufacturer's instructions (Roche). […] The formazan absorbance, which correlates to the number of living cells, was measured at 450 nm and 630 nm as reference filter using a microplate reader. (Ultramark, Microplate Imaging System, Bio-Rad). The IC50 was calculated from the graph of the log of the compound concentration versus the fraction of the surviving cells.
(Tetrazolium assays rely on reduction of a dye to a coloured formazan, in cell work by metabolically active cells.)

In assay [4] the test system is MDA-MB-231. Briefly: Cell viability assay (WST-1). The format is cell-based, human. Particulars: Homo sapiens, MDA-MB-231, 48 h, read-out: IC50 (concentration yielding 50% growth inhibition). As to the method: as §3, §4
The next assay concerns the target T2, CDK2/cyclinE (Homo sapiens, UniProt P24941).
T2 construct: purchased Millipore, Dundee, UK (screening service)
Briefly: Kinase assay ([γ-33P]-ATP, histone H1). Particulars: read-out: % inhibition of kinase activity, CDK2/cyclinE. The assay is classed as biochemical. As to the method:
(§5) The final reaction was carried out in a 25 μL solution.
as §2, with “Briefly” for “Kinase selectivity of compounds VMY-1-101 and VMY-1-103 were screened at Millipore, Dundee, UK. Briefly”, “solution.” for “solution. From the reaction, 10 μL was spotted onto a P30 filtermat and washed three times for 5 minutes in 75 mM phosphoric acid and once in methanol prior to dying and scintillation counting.”

The target of the next assay is T3, CDK3/cyclinE (Homo sapiens, UniProt Q00526).
T3 construct: purchased Millipore, Dundee, UK (screening service)
The assay is described as follows: Kinase assay ([γ-33P]-ATP, histone H1). The assay is classed as biochemical. The note with it: read-out: % inhibition of kinase activity, CDK3/cyclinE. The method, then: as §5
as §2, with “Briefly” for “Kinase selectivity of compounds VMY-1-101 and VMY-1-103 were screened at Millipore, Dundee, UK. Briefly”, “solution.” for “solution. From the reaction, 10 μL was spotted onto a P30 filtermat and washed three times for 5 minutes in 75 mM phosphoric acid and once in methanol prior to dying and scintillation counting.”

Assay [5] concerns T4, CDK1/cyclinA (Homo sapiens).
T4 construct: purchased Millipore, Dundee, UK (screening service)
The assay is described as follows: Kinase assay ([γ-33P]-ATP, histone H1). The assay is classed as biochemical. Particulars: read-out: % inhibition of kinase activity, CDK1/cyclinA. As to the method:
as §5
as §2, with “Briefly” for “Kinase selectivity of compounds VMY-1-101 and VMY-1-103 were screened at Millipore, Dundee, UK. Briefly”, “solution.” for “solution. From the reaction, 10 μL was spotted onto a P30 filtermat and washed three times for 5 minutes in 75 mM phosphoric acid and once in methanol prior to dying and scintillation counting.”

The next assay concerns the target T5, CDK1/cyclinB (Homo sapiens, UniProt P06493).
T5 construct: purchased Millipore, Dundee, UK (screening service)
The assay is described as follows: Kinase assay ([γ-33P]-ATP, histone H1). The format is biochemical. Particulars: compound 0.1 μM. The method, then: as §5
as §2, with “Briefly” for “Kinase selectivity of compounds VMY-1-101 and VMY-1-103 were screened at Millipore, Dundee, UK. Briefly”, “solution.” for “solution. From the reaction, 10 μL was spotted onto a P30 filtermat and washed three times for 5 minutes in 75 mM phosphoric acid and once in methanol prior to dying and scintillation counting.”

T5 sequence (P06493 whole entry): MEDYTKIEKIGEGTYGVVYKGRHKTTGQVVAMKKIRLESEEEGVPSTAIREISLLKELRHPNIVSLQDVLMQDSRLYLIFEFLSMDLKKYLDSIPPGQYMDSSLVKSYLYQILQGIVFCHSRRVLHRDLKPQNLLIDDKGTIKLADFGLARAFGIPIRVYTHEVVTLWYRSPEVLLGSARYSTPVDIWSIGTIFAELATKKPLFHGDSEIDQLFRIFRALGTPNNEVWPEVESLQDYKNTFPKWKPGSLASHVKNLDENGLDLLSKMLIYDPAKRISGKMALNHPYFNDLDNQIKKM
T5 sequence (P14635 whole entry partner): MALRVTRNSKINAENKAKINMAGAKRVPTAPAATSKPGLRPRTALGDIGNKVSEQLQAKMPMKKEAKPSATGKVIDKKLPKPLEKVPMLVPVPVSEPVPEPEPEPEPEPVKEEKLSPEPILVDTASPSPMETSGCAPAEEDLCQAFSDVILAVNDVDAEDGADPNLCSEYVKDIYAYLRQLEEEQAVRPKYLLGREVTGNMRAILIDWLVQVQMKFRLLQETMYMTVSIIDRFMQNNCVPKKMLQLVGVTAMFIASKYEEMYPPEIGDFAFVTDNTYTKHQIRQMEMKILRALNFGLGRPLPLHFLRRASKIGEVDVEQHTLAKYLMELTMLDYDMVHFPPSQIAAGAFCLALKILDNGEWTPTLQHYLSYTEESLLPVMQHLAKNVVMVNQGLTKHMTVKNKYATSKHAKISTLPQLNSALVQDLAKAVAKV

With `CC[C@H](CO)Nc1nc(Nc2ccc(C(=O)NCCNS(=O)(=O)c3cccc4c(N(C)C)cccc34)c(Cl)c2)c2ncn(C(C)C)c2n1` [VMY-1-101, 2-Chloro-N-[2-(5-dimethylamino-naphthalene-1-sulfonylamino)-ethyl]-4-[2-(1-hydroxymethyl-propylamino)-9-isopropyl-9H-purin-6-ylamino]-benzamide], the PARP cleavage result with MDA-MB-231 cells was “moderate cleavage of the 116-kDa full length PARP into an 89-kDa fragment”. The “protein level of full length caspase 3 and 7” value in the assay with MDA-MB-231 cells was “decrease in protein level of full length caspase 3 and 7”. Besides, the “effect on cell cycle progression (G2/M phase)” value with MCF-7 [1] (MCF-7, 5, 10 μM, 24 hrs) is listed as “induced the cell cycle progression in G2/M phase”; with MDA-MB-231 [2] (MDA-MB-231, 5, 10 μM, 24 hrs), “induced the cell cycle progression in G2/M phase”. The “% G1” value is reported as 63.56 ± 1.20% in the assay on MCF-7 [1] (MCF-7, 24 hrs, 5 μM) and 51.5 ± 0.50% with MDA-MB-231 [2] (MDA-MB-231, 24 hrs, 5 μM). The “% S” value was determined as 10.75 ± 0.88% in the assay with MCF-7 [1] (MCF-7, 24 hrs, 5 μM) and 25.05 ± 0.45% in the assay with MDA-MB-231 [2] (MDA-MB-231, 24 hrs, 5 μM). The “% Sub-G1” value is given as 2.08 ± 0.19% in the assay on MCF-7 [1] (MCF-7, 24 hrs, 5 μM) and 2.01 ± 0.19% in the assay on MDA-MB-231 [2] (MDA-MB-231, 24 hrs, 5 μM). The inhibition at 0.1 µM at CDK7/cyclinH/MATI turned out to be 57%; at CDK2/cyclinE, 87%; at CDK3/cyclinE, 40 ± 3%; in assay [5], 62%; against CDK1/cyclinB, 16 ± 3%. Further, the IC50 amounted to 19.1 ± 1.14 µM in the assay with MCF-7 [3] and 4.86 ± 1.24 µM in the assay with MDA-MB-231 [4].
